# Patent publication US10954231B2, “Anxiolytic compounds” (Bionomics Limited, priority 2006, dated 2021)
# How the values were obtained:
# Format in all cases: in vivo
# mice [1] = experiment: Marble burying test; details: oral, 60 min before test, 20 min session
# Description: The Marble Burying test is used as a model for both anxiety and obsessive compulsive disorders. Mice have a natural tendency to bury marbles under the bedding when placed in a cage with rows of evenly spaced marbles on the floor. Suppression of this spontaneous burying has been used as a measure of anxiolytic drug action. Mice pre-treated with benzodiazepines and different classes of antidepressants bury less marbles when compared to the control mice
# The apparatus consists of transparent polycarbonate cages (30 cm×18 cm×19 cm) containing a 5 cm layer of fine sawdust bedding and 20 glass marbles (diameter: 1.5 cm) spaced evenly along the walls of the cage. Each animal is placed individually in the cage where it remains for a 20 min test session. On termination of the test session the animals are removed from the cage and the number of marbles at least two-thirds buried in the sawdust is recorded.
# Example 1 was tested in the Marble Burying model. The minimum effective dose in mg/kg is indicated in the MB column in Table 1.
# The test compound was prepared in 5% PEG400−0.9% NaCl.
# (§1) It was administrated orally, 60 minutes before the implementation of the test.
# mice [2] = experiment: Light dark test; details: oral, 60 min before test; for LD: significant anxiolytic effect (number of significant parameters): parameters: time spent in lit area, transitions into lit area, total walked distance in lit area; for minimal effective dose at 20 mg/kg: Mus musculus, 1 h, for examples marked * 20 mg/kg is the only dose tested, read-out: LD: minimum effective dose
# Description: The light dark paradigm is based on a conflict between the innate aversion of rodents to brightly illuminated areas and on the spontaneous exploratory behaviour of the mice. If given a choice between a large brightly compartment versus a small dark compartment they spontaneously prefer the dark part.
# The apparatus consists of two PVC (polyvinylchloride) boxes (19×19×15 cm) covered with Plexiglas. One of these boxes is darkened. The other box is illuminated by 100 W desk lamp placed 15 cm above and providing an illumination of about 4400 Lux. An opaque plastic tunnel (5×7×10 cm) separates the dark box from the illuminated one.
# Animals were placed individually in the lit box, with head directed towards the tunnel. The time spent in the lit box and the number of transitions between the two boxes was recorded over a 5 min period after the first entry of the animal in the dark box. The total walked distance in the lit box was also recorded. Animals scored without entry into the […] were excluded from the analysis.
# The compounds in Table 1 were tested in the light-dark test (indicated in the LD column). +=a significant anxiolytic effect in one of the three parameters measured in the LD model, ++ represents a significant effect in 2 parameters and +++ is significance in all three. The parameters are: time spent in the lit area, number of transitions into the lit area, or total walked distance in the lit area.
# The test compound was prepared in 5% PEG400-0.9% NaCl.
# as §1
# rat = experiment: Elevated plus maze; design: key to EPM rat: significant anxiolytic effect (number of significant parameters): +: a significant anxiolytic effect in one of the three parameters measured in the LD model; ++: represents a significant effect in 2 parameters; +++: is significance in all three; details: oral, 60 min before test
# mice [3] = experiment: Open field (dark), spontaneous motor activity; design: key to OF: sedation: NS: no sedation; S: sedation; details: oral, 60 min before test; for OF: sedation: 20 min recording; for OF: maximum non-sedating dose: for examples marked * 20 mg/kg is the only dose tested
# Description: The open field (dark) is used to measure the spontaneous motor activity of mice in a quiet, dark environment. This system is useful for discriminating the sedating or stimulating properties of test compounds on spontaneous locomotion and can thus provide a preliminary indication of potentially adverse effects such as sedation.
# The apparatus is an open plexiglass cage (52×52 cm) with 40 cm walls. The animal's movements are tracked by a computerised video tracking system, consisting of an overhead camera, diode sensors placed underneath the floor of the cage, computer and video analyser software (ViewPoint, France). The video camera is placed at 2.50 m above the cage and connected to the computer via a video capture card (Pinnacle Systems, France). The video tracking system is set in a way that the floor of the OF is divided into nine equal squares. The total number of crossed squares and the total walked distance are recorded.
# Each animal is singly placed in a corner of the apparatus and its locomotor activity is automatically recorded over a period of 20 minutes.
# The apparatus is cleaned between each animal with alcohol (70%).
# The below items were tested in the Open Field as indicated by an entry in the OF column. NS=no sedation; S=sedation. The maximum non-sedating dose in mg/kg is shown.
# Test compound was prepared in 5% PEG400−0.9% NaCl. It was administered orally, 60 minutes before the implementation of the test.
Compound,MB: minimum effective dose (mice [1]),LD: significant anxiolytic effect (number of significant parameters) (mice [2]),EPM rat: minimum effective dose (rat),"EPM rat: significant anxiolytic effect (number of significant parameters) (rat; parameters: time spent in open arms, transitions into open arms, total walked distance in open arms)",OF: sedation (mice [3]),OF: maximum non-sedating dose (mice [3]),minimal effective dose at 20 mg/kg (mice [2])
"CCn1cc(C(=O)N2CCOCC2)c(=O)c2cc(NC3Cc4ccccc4C3)cnc21 [Example 1, Morpholino 6-(2,3-dihydro-1H-inden-2-yl)amino-1-ethyl-1,4-dihydro-4-oxo-1,8-naphthyridine-3-carboxamide]",1 mg/kg,++,0.1 mg/kg,+++,NS,100 mg/kg,–
"CCn1cc(C(=O)N2CCOCC2)c(=O)c2nc(NC3Cc4ccccc4C3)ccc21 [Example 2, Morpholino 6-(2,3-dihydro-1H-inden-2-ylamino)-1-ethyl-1,4-dihydro-4-oxo-1,5-naphthyridine-3-carboxamide]",–,+++,–,–,S,5 mg/kg,30 mg/kg
"CCn1cc(C(=O)N2CCOCC2)c(=O)c2cc(NC3Cc4ccccc4C3)ncc21 [Example 3, morpholino 6-(2,3-dihydro-1H-inden-2-ylamino)-1-ethyl-1,4-dihydro-4-oxo-1,7-naphthyridine-3-carboxamide]",–,++,–,–,–,–,–
"CCn1cc(C(=O)N2CCN(C)CC2)c(=O)c2cc(NC3Cc4ccccc4C3)cnc21 [Example 4, Methylpiperazino 6-(2,3-dihydro-1H-inden-2-ylamino)-1-ethyl-1,4-dihydro-4-oxo-1,8-naphthyridine-3-carboxamide]",–,++,–,–,–,–,20 mg/kg
"CCn1cc(C(=O)NC2CC2)c(=O)c2cc(NC3Cc4ccccc4C3)cnc21 [Example 5, Cyclopropylamino 6-(2,3-dihydro-1H-inden-2-ylamino)-1-ethyl-1,4-dihydro-4-oxo-1,8-naphthyridine-3-carboxamide]",–,+,–,–,–,–,20 mg/kg
CCN(CC)C(=O)c1cn(CC)c2ncc(NC3Cc4ccccc4C3)cc2c1=O [Example 6],–,++,–,–,NS,20 mg/kg,20 mg/kg
"CCOC(=O)c1cn(CC)c2ncc(NC(=O)c3cc(OC)c(OC)c(OC)c3)cc2c1=O [Example 7, Ethyl 6-(3,4,5-trimethoxybenzoylamide)-1-ethyl-1,4-dihydro-4-oxo-1,8-naphthyridine-3-carboxylate]",–,++,–,–,S,20 mg/kg,20 mg/kg
CCn1cc(C(=O)Nc2ccc(F)cc2)c(=O)c2cc(NC3Cc4ccccc4C3)cnc21 [Example 8],–,++,–,–,NS,20 mg/kg,20 mg/kg
"CCn1cc(C(=O)Nc2ccc(-c3ccccc3)cc2)c(=O)c2cc(NC3Cc4ccccc4C3)cnc21 [Example 9, 4-biphenylamino-6-(2,3-dihydro-1H-inden-2-ylamino)-1-ethyl-1,4-dihydro-4-oxo-1,8-naphthyridine-3-carboxamide]",–,+++,–,–,NS,20 mg/kg,20 mg/kg
"CCOC(=O)c1cn(CC)c2ncc(NC(=O)C(C)C)cc2c1=O [Example 10, Ethyl 6-(isobutyrylamide)-1-ethyl-1,4-dihydro-4-oxo-1,8-naphthyridine-3-carboxylate]",–,+++,–,–,NS,20 mg/kg,20 mg/kg
